Experimental findings from US5310745A, “Antiviral compounds” (priority 1992, dated 1994) are described below.

By inhibition is commonly meant the drop in the measured response relative to a control, in per cent.

Assay type in all cases: cell-based
The test system of data set [1] is visna virus. Kind of data set: Plaque reduction assay, inhibition of visna virus in vitro. Also noted: key to Antiviral Activity: A: active compound; I: inactive compound. As to conditions: for Antiviral Activity: Table 1; for inhibition at 1 µM / inhibition at 10 µM / inhibition at 100 µM / inhibition at 1000 µM: Visna-maedi virus; for inhibition at 1 µM: 0.001 mM; for inhibition at 1 µM / inhibition at 10 µM / % Plaque Reduction / inhibition at 100 µM / inhibition at 1000 µM: Table 2; for inhibition at 10 µM: 0.01 mM. From the text:
Visna virus, a lentivirus genetically very similar to the AIDS virus, is pathogenic for sheep and goats. See Sonigo et al., Cell 42, 369-382 (1985); Haase, Nature 322, 130-136 (1986). Inhibition of visna virus replication in vitro as a useful model for human immunodeficiency virus (HIV) and its inhibition by test compounds has been described by Franket al., Antimicrobial Agents and Chemotherapy 31 (9), 1369-1374 (1987). The N-butyl derivative of 1,5-dideoxy-1,5-imino-D-glucitol, also referred to as n-butyl-deoxynojirimycin (N-Bu-DNJ), was used as a control standard for comparison with various novel compounds of this invention.
Various compounds as prepared above were tested for inhibition of visna virus in vitro in a plaque reduction assay as follows:
(§1) Sheep choroid plexus (SCP) cells were obtained from American Type Culture Collection (ATCC) catalogue number CRL 1700 and were routinely passaged in vitro in Dulbecco's Modified Eagles (DME) medium supplemented with 20% fetal bovine serum (FBS). SCP cells were passaged once per week at a 1:2 or 1:3 split ratio. Visna was titrated by plaque assay in six-well plates. Virus pools were stored at -70° C.
(§2) SCP cells were cultured in 6-well plates to confluence. Wells were washed two times with serum free Minimal Essential Medium (MEM) to remove FBS. 0.2 ml of virus was added per well in MEM supplemented with 4 mM glutamine and gentamycin. After 1 hour adsorption, the virus was aspirated from each well. The appropriate concentration of each compound in 5 ml of Medium 199 (M-199) supplemented With 2% lamb serum, 4 mM glutamine, 0.5% agarose and gentamycin was added to each well. Cultures were incubated at 37° C. in a humidified 5% CO2 incubator for 3-4 weeks. To terminate the test: cultures were fixed in 10% formalin, the agar removed, the monolayers stained with 1% crystal violet and plaques counted. Each compound concentration was run in triplicate. […] 0 is no toxicity observed while 4 is total lysing of the cell monolayer.
In general terms: Plaques are areas of infected cells; plaque reduction assays count them against a control.

Data set [2] deals with Sheep choroid plexus (SCP) cells. Put plainly: Toxicity of compounds in control wells without virus, graded morphologically. The procedure:
as §1, §2

For data set [3] the test system is unchanged. Described as above. The note with it: graded 0 to 4, Table 2. On the set-up: key: 0: no toxicity observed; 4: total lysing of the cell monolayer. The procedure:
as §1, §2

Setting [4] is: 0.03125 mM, 0 to 4 scale, Table 1.
The mark [5] stands for this setting: 0.01 mM, graded 0 to 4, Table 2.

As to `CC(=O)OC[C@@H]1[C@@H](OC(C)=O)[C@H](OC(C)=O)[C@@H](OC(C)=O)CN1C` [Example 10, 1,5-(Methylimino)-1,5-dideoxy-D-glucitol, tetraacetate], the “Antiviral Activity” value in data set [1] (0.03125 mM), in data set [1] (0.0625 mM) and in data set [1] (0.125 mM) was “A” each time. Further, the Toxicity in data set [2] (setting [4]) is 1; in data set [2] (0.0625 mM, 0 to 4 scale, Table 1), 2; in data set [2] (0.125 mM, 0 to 4 scale, Table 1) it was 3.
On to `CC(=O)OC[C@@H]1[C@@H](OC(C)=O)[C@H](OC(C)=O)[C@@H](OC(C)=O)CN1C(=O)Cc1ccc(Cl)cc1` [Example 40, 1,5-[(4-Chlorophenyl)acetylimino]-1,5-dideoxy-D-glucitol, tetraacetate], for which the inhibition at 1 µM in data set [1] came to 29%. The inhibition at 10 µM in data set [1] stood at 46%. The Toxicity in data set [2] (setting [5]) is listed as 1; in data set [2] (0.1 mM, graded 0 to 4, Table 2), 3; in data set [3] (0.001 mM) it was 0; in data set [3] (1.0 mM), 4.
Consider `CCCC(=O)OC[C@@H]1[C@@H](OC(=O)CCC)[C@H](OC(=O)CCC)[C@@H](OC(=O)CCC)CN1C(=O)c1ccccc1OC(C)=O` [Example 52, 1,5-[[2-(Acetyloxy)benzoyl]imino]-1,5-dideoxy-D-glucitol, tetrabutanoate], for which the “% Plaque Reduction” value in data set [1] (1.0 mM) is “Toxic”. The inhibition at 1 µM in data set [1] came to 16%. Also, in data set [1], the inhibition at 10 µM came out at 37%. For the same compound, in data set [1] (0.1 mM), the inhibition at 100 µM came to 98%. Also, the Toxicity was 0 in data set [3] (0.001 mM), 0 in data set [3] (0.01 mM), 0 in data set [3] (0.1 mM) and 4 in data set [3] (1.0 mM).
Take `CCCCN1C[C@H](OC(=O)C(C)(C)C)[C@@H](O)[C@H](OC(=O)C(C)(C)C)[C@H]1COC(=O)C(C)(C)C` [Example 50B]: the inhibition at 1 µM in data set [1] amounted to 17%. Further, the inhibition at 10 µM in data set [1] stood at 33%. Besides, the inhibition at 100 µM in data set [1] (0.1 mM) stood at 75%. Further, in data set [1] (1.0 mM), the inhibition at 1000 µM turned out to be 76%. Besides, the Toxicity in data set [2] (0.1 mM, graded 0 to 4, Table 2) is listed as 1; in data set [2] (1.0 mM, graded 0 to 4, Table 2), 2; in data set [3] (0.001 mM), 0; in data set [3] (0.01 mM), 0.
Regarding `CCCC(=O)OC[C@@H]1[C@@H](O)[C@H](OC(=O)CCC)[C@@H](OC(=O)CCC)CN1CCCCCC(F)(F)F` [Example 66, 1,5-(6,6,6-Trifluorohexylimino)-1,5-dideoxy-D-glucitol, 2,3,6-tributyrate], the inhibition at 1 µM in data set [1] was -3%. For the same compound, in data set [1], the inhibition at 10 µM stood at 38%. Further, in data set [1] (0.1 mM), the inhibition at 100 µM stood at 88%. Also, in data set [1] (1.0 mM), the inhibition at 1000 µM was determined as 100%. In addition, the Toxicity is reported as 1 in data set [2] (0.1 mM, graded 0 to 4, Table 2); 2 in data set [2] (1.0 mM, graded 0 to 4, Table 2); 0 in data set [3] (0.001 mM); 0 in data set [3] (0.01 mM).
On to `CC(=O)OC[C@@H]1[C@@H](OC(C)=O)[C@H](OC(C)=O)[C@@H](OC(C)=O)CN1C(=O)COc1ccccc1` [Example 25, 1,5-[(Phenoxymethyl)carbonylimino]-1,5-dideoxy-D-glucitol, tetraacetate], for which the “Antiviral Activity” value in data set [1] (0.1 mM) and in data set [1] (1.0 mM) was “A” throughout. Also, the Toxicity in data set [2] (0.1 mM, 0 to 4 scale, Table 1) was 1; in data set [2] (1.0 mM, 0 to 4 scale, Table 1), 2.
`CCCCCCCCCCc1ccc(C(=O)N2C[C@H](OC(C)=O)[C@@H](OC(C)=O)[C@H](OC(C)=O)[C@H]2COC(C)=O)cc1` [Example 47, 1,5-[(4-Decylbenzoyl)imino]-1,5-dideoxy-D-glucitol, tetraacetate]: the “% Plaque Reduction” value in data set [1] (1.0 mM) is reported as “Toxic”. The inhibition at 1 µM in data set [1] worked out at 9%. Further, the inhibition at 10 µM in data set [1] is 64%. Further, in data set [1] (0.1 mM), the inhibition at 100 µM is 86%. In addition, the Toxicity in data set [2] (0.1 mM, graded 0 to 4, Table 2) came to 1; in data set [3] (0.001 mM) it was 0; in data set [3] (0.01 mM), 0; in data set [3] (1.0 mM), 4.
For `CCCCCCN1C[C@H](OC(C)=O)[C@@H](OC(C)=O)[C@H](OC(C)=O)[C@H]1COC(C)=O` [Example 12, 1,5-(Hexylimino)-1,5-dideoxy-D-glucitol, tetraacetate], the “Antiviral Activity” value in data set [1] (0.0075 mM), in data set [1] (0.0156 mM) and in data set [1] (0.03125 mM) was “A” throughout. In addition, the Toxicity in data set [2] (0.0075 mM, 0 to 4 scale, Table 1) worked out at 1; in data set [2] (0.0156 mM, 0 to 4 scale, Table 1), 1; in data set [2] (setting [4]), 2.
As for `CCC(CC)CN1C[C@H](OC(C)=O)[C@@H](OC(C)=O)[C@H](OC(C)=O)[C@H]1COC(C)=O` [Example 27, 1,5-[(2-Ethylbutyl)imino]-1,5-dideoxy-D-glucitol, tetraacetate], the inhibition at 100 µM in data set [1] (0.1 mM) came to 12%. Besides, in data set [1] (1.0 mM), the inhibition at 1000 µM is 65%. Further, the Toxicity worked out at 3 in data set [2] (1.0 mM, graded 0 to 4, Table 2) and 0 in data set [3] (0.1 mM).
Take `CCCCN1C[C@H](OC(=O)CCC(C)C)[C@@H](OC(=O)CCC(C)C)[C@H](OC(=O)CCC(C)C)[C@H]1COC(=O)CCC(C)C` [Example 49, 1,5-(Butylimino)-1,5-dideoxy-D-glucitol, tetra(4-methylpentanoate)]: the inhibition at 1000 µM in data set [1] (1.0 mM) turned out to be 98%. Further, the Toxicity in data set [3] (1.0 mM) is reported as 0.
Take `CCCCN1C[C@H](OC(=O)CCC2CCCC2)[C@@H](OC(=O)CCC2CCCC2)[C@H](OC(=O)CCC2CCCC2)[C@H]1COC(=O)CCC1CCCC1` [Example 56, 1,5-(Butylimino)-1,5-dideoxy-D-glucitol, tetra(3-cyclopentylpropanoate)]: the inhibition at 10 µM in data set [1] is 13%. Moreover, the inhibition at 100 µM in data set [1] (0.1 mM) was 16%. Moreover, in data set [1] (1.0 mM), the inhibition at 1000 µM was 56%. The Toxicity in data set [3] (0.01 mM), in data set [3] (0.1 mM) and in data set [3] (1.0 mM) was 0 in each case.
With `CC(=O)OC[C@@H]1[C@@H](OC(C)=O)[C@H](OC(C)=O)[C@@H](OC(C)=O)CN1C(=O)C=Cc1ccccc1` [Example 36, 1,5-(Cinnamoylimino)-1,5-dideoxy-D-glucitol, tetraacetate], the “% Plaque Reduction” value in data set [1] (0.1 mM) and in data set [1] (1.0 mM) was “Toxic” in each case. Moreover, the inhibition at 1 µM in data set [1] came out at 42%. Also, the inhibition at 10 µM in data set [1] turned out to be 76%. Besides, the Toxicity in data set [3] (0.001 mM) is 0; in data set [3] (0.01 mM) it was 0; in data set [3] (0.1 mM), 4; in data set [3] (1.0 mM), 4.
For the compound `CCCC(=O)OC[C@@H]1[C@@H](OC(=O)CCC)[C@H](OC(=O)CCC)[C@@H](OC(=O)CCC)CN1CCCCCCCC(F)(F)F` [Example 62, 1,5-(8,8,8-Trifluorooctylimino)-1,5-dideoxy-D-glucitol, tetrabutyrate], the inhibition at 10 µM in data set [1] amounted to 49%. Besides, the inhibition at 100 µM in data set [1] (0.1 mM) stood at 91%. The inhibition at 1000 µM in data set [1] (1.0 mM) is 97%. The Toxicity in data set [2] (setting [5]) worked out at 1; in data set [2] (0.1 mM, graded 0 to 4, Table 2) it was 1; in data set [2] (1.0 mM, graded 0 to 4, Table 2) it was 2.
As for `CCCC(=O)OC[C@@H]1[C@@H](OC(=O)CCC)[C@H](OC(=O)CCC)[C@@H](OC(=O)CCC)CN1C(=O)Cc1cccs1` [Example 55, 1,5-Dideoxy-1,5-[[1-oxo-2-(2-thienyl)ethyl]imino]-D-glucitol, tetrabutanoate], in data set [1] (1.0 mM), the “% Plaque Reduction” value is reported as “Toxic”. In data set [1], the inhibition at 1 µM worked out at 11%. Besides, the inhibition at 10 µM in data set [1] turned out to be 37%. Also, in data set [1] (0.1 mM), the inhibition at 100 µM was 95%. Further, the Toxicity was determined as 0 in data set [3] (0.001 mM), 0 in data set [3] (0.01 mM), 0 in data set [3] (0.1 mM) and 4 in data set [3] (1.0 mM).
